In publication PMC7311950, “Potent Tetrahydroquinolone Eliminates Apicomplexan Parasites” (Frontiers in Cellular and Infection Microbiology, 2020):
Converted amounts (≈) assume the structure as drawn.

Assays:
P. berghei sporozoites = tested on: P. berghei sporozoites; design: method as in Doggett et al., 2012; Frueh et al., 2017; settings: doses between 1 and 20 mg/kg, not the prodrug; ref Doggett et al., 2012; Frueh et al., 2017; cited from earlier work
[1] = tested on: T. gondii RH-YFP tachyzoites; experiment: In vitro challenge assay, RH strain YFP tachyzoites in HFF; format: cell-based; settings: Toxoplasma gondii; RH-YFP tachyzoites in HFF; Figure 1A; read-out: Tachy IC50
Description: RH strain YFP Tachyzoites. Protocol was adapted from Fomovska et al. ([2012a],[b]) for HFF. HFF were cultured on a flat, clear-bottomed, black 96-well plate to 90–100% confluence. IMDM (1x, [+] glutamine, [+] 25 mM HEPES, [+] Phenol red, 10% FBS [Gibco, Denmark]) was removed and replaced with IMDM-C(1x, [+] glutamine, [+] 25 mM HEPES, [–] Phenol red, 10% FBS)[Gibco, Denmark]). RH-YFP, lysed from host cells by passing twice through a 27-gauge needle, were counted, then diluted to 32,000/mL in IMDM-C. HFF were infected with 3200 RH-YFP, then returned to 37°C, CO2 (5%) incubator for 1–2 h for infection. Various concentrations of the compounds in 20 μL IMDM-C were added to each well. There were triplicates for each condition. Controls were pyrimethamine/sulfadiazine (standard treatment), 0.1% DMSO only, HFF only, and untreated cultures of HFF infected with 2-fold dilutions of YFP expressing parasites (called “YFP gradient” to establish amount of color from known numbers of YFP expressing parasites). Cells were incubated at 37°C for 72 h. Plates were read using a fluorimeter (Synergy H4 Hybrid Reader, BioTek) to ascertain amount of relative fluorescence units (RFU) YFP, to measure parasite burden after treatment. Data were collected using Gen5 software with IC50 calculated by graphical analysis in Excel.
An initial screening assay of 10 μM, 1 μM, 100 nM, and 10 nM of the compounds was performed. Compounds were not considered effective or pursued for further analysis if there was no inhibition of tachyzoites at 1 μM. If compounds were effective at 1 μM, another experiment was performed to assess effect at 1 μM, 500, 250, 125, 62.5, and 31.25 nM.

[2] = molecular target: T1, P. falciparum bc1 complex cytochrome c reductase (Pfbc1) (Plasmodium falciparum, UniProt Q02768); experiment: Pfbc1 native assay (cytochrome c reduction by parasite extract); format: biochemical; settings: atovaquone 1 μM positive control, X ± S.D., N = 4
T1 construct: Parasite extract was then prepared by disruption with a sonicating probe; endogenous in cells; host or cells: P. falciparum strain 3D7 blood-stage culture, sonicated parasite extract
T1 sequence (Q02768 1-376): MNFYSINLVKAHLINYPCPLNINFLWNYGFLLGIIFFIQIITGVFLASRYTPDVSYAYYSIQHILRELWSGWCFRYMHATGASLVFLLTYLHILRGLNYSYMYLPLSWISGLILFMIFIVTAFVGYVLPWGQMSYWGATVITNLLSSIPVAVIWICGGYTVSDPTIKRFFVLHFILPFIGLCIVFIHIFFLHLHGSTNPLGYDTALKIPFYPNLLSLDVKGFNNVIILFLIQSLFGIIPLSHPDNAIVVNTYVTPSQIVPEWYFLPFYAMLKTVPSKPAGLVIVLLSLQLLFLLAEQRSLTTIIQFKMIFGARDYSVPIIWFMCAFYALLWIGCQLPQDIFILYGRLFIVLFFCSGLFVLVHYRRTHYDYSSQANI
Description: P. falciparum 3D7 strain were obtained from the Liverpool School of Tropical Medicine. Protease cocktail inhibitor was obtained from Roche. Bradford protein assay dye reagent was obtained from Bio-Rad. All other reagents were obtained from Sigma-Aldrich. Decylubiquinol was produced as per Fisher et al. ([2009]). In brief, 25 mg of decylubiquinone were dissolved in 400 μL of nitrogen-saturated hexane. An equal volume of aqueous 1 M sodium dithionite was added, and the mixture vortexed until colorless. The organic phase containing the decylubiquinol was collected, the solvent was evaporated under N2 and the decylubiquinol finally dissolved in 100 μL of 96% ethanol (acidified with 10 mM HCl). Concentrations of decylubiquinol was determined spectrophotometrically on a Cary 300 Bio UV/visible spectrophotometer (Varian, UK) from absolute spectra, using ε288−−320 = 8.1 mM^−1.cm^−1. Decylubiquinol was stored at −80°C and used within 2 weeks. […]
The protocol for the preparation of parasite extract was adapted from Fisher et al. ([2009]). […] The protein concentration of the parasite extract was determined by Bradford protein assay (Bio-Rad).
P. falciparum bc1 complex cytochrome c reductase (Pfbc1) activity was measured by monitoring cytochrome c reduction at 550 vs. 542 nm using a Cary 300 Bio UV-Visible Spectrophotometer (Varian, UK), using a protocol adapted from Fisher et al. ([2009]). […]

[3] = Kinetic solubility in PBS pH 7.4 (Chem Partners); settings: PBS, pH 7.4, aqueous buffer, kinetic from dmso stock
Description: The effects of changing R1 as 7-Et, 7-Me, 6-CF3, or 6-Me on activity against RH strain tachyzoites, kinetic solubility, and metabolic stability were compared. Kinetic solubility and metabolic stability in human or murine liver microsomes were measured. The hERG (human Ether-à-go-go-Related) liability was also determined. The hERG gene (KCNH2) encodes a protein Kv11.1, the alpha subunit of a potassium ion channel. This channel conducts the rapid component of the delayed rectifier potassium current, IKr, which is critical for repolarization of cardiac action potentials. A reduction in hERG currents from adverse drug effects can lead to long QT interval syndromes. These syndromes are characterized by action potential prolongation, lengthening of the QT interval on surface EKG, and an increased risk for “torsade de pointes” arrhythmias and sudden death. The MDCK-MDR1 Permeability Assay was also performed. MDCK-MDR1 refers to the ability of a compound to permeate across membranes of MDCK-MDR1 (Madin Darby canine kidney [MDCK] cells with the MDR1 gene [ABCB1], the gene encoding for the efflux protein, P-glycoprotein (P-gp)) in vitro. Assessing transport in both directions (apical to basolateral and basolateral to apical) across the cell monolayers enables an efflux ratio to be determined. […] This provides a prediction of blood brain barrier (BBB) penetration potential/permeability and efflux ratio. Effect in CACO-2 (Colon Adenocarcinoma cells) as a permeability assay and on cytochrome P450 (CYP 450) were also determined. CYP enzymes catalyze oxidative biotransformation (phase 1 metabolism) of most drugs. CYP enzymes, bind to membranes in a cell (cyto) and contain a heme pigment (chrome and P) that absorbs light at a wavelength of 450 nm when exposed to carbon monoxide. Metabolism of a drug by CYP enzymes is a major source of variability in drug effect. These were measured by Chem Partners. The relative effect on HFF and parasite enzymes also were compared.

In the case of `COc1cc2[nH]c(C)c(-c3ccc(Oc4ccc(OC(F)(F)F)cc4)cc3)c(=O)c2cc1Cl` [ELQ 300], the “efficacy in the in vivo malaria model” value (P. berghei sporozoites) is listed as “not effective”.

Compound `O=c1c2c([nH]c(CO)c1-c1ccc(Oc3ccc(OC(F)(F)F)cc3)cc1)CCCC2` [JAG099] has an IC50 [1] of 380 nM, an inhibition at 1 µM [2] of 81.3 ± 6% and a solubility kinetic [3] of 4.05 µM (≈ 1.75 µg/mL).
